# Active and inactive are the calls of the source. The calls are words filed in the database; no cut-off is given here.
# System: DN3.2.D3
# Test: Stimulation of IL2 release in mouse DN3.2.D3 cells by ELISA
# Format: functional, cell-based
row,Compound,Activity
1,CCCCCCCCCCCCCC[C@@H](O)[C@@H](O)[C@H](CO[C@H]1O[C@H](CNC(C)=O)[C@H](O)[C@H](O)[C@H]1O)NC(=O)CCCCCCC,Active
2,CCCCCCCCCCCCCC[C@@H](O)[C@@H](O)[C@H](CO[C@H]1O[C@H](CO)[C@H](O)[C@H](O)[C@H]1O)NC(=O)CCCCCCC,Active
3,CCCCCCCCCCCCCC[C@@H](O)[C@@H](O)[C@H](CO[C@H]1O[C@H](CNC(C)=O)[C@H](O)[C@H](O)[C@H]1O[C@H]1O[C@H](CO)[C@H](O)[C@H](O)[C@H]1O)NC(=O)CCCCCCC,Active
